Results taken from paper PMC11277004, “Di- and Triselenoesters—Promising Drug Candidates for the Future Therapy of Triple-Negative Breast Cancer” (International Journal of Molecular Sciences, 2024).
Read-outs that look alike come from different tables or passages of the source.

What was measured:
[1] = system: LC3A/B; assay: LC3A/B protein level by flow cytometry, MDA-MB-231; type: cell-based, human; conditions: 24 h
Protocol: (§1) For this purpose, Akt (PE), Bax (FITC), Bcl-2 (Alexa Fluor® 647), LC3A/B (Alexa Fluor® 488), and p53 (Alexa Fluor® 488) antibodies conjugated to different fluorochromes (all from Cell Signaling Technology, Beverly, MA, USA) were utilized. Each assay was performed according to the manufacturer's protocol available on their website. After incubation with the tested compounds, the cells were centrifuged, resuspended in 4% formaldehyde (100 μL/1 × 10^6 cells), and fixed for 15 min at room temperature. Afterward, to remove the formaldehyde, the cells were washed by centrifugation with excess PBS and the permeabilization step was triggered. For this purpose, ice-cold 90% methanol was added to the pre-chilled cell pellet, gently vortexed, and incubated for 1 h on ice. Later, the cells were washed by centrifugation with excess PBS again, resuspended in 100 μL of 1:100 diluted primary antibody (stain buffer was used for dilution), and incubated for 1 h at room temperature in the dark. After incubation, the cells were washed, resuspended in 300 μL PBS, and immediately tested with a flow cytometer (BD FACSCanto II, BD Biosciences Systems, San Jose, CA, USA; 10,000 events measured). The obtained results were analyzed using the FACSDiva 6.0 software (BD Biosciences Systems, San Jose, CA, USA). In the case of the p53 protein, the MRF values were obtained first during the flow cytometer readout utilizing FACSDiva software and later analyzed using FCS Express 7 (De Novo Software, Pasadena, CA, USA). The equipment calibration was performed using the BD Cytometer Setup and Tracking Beads (BD Biosciences, San Diego, CA, USA).

[2] = system: caspase 3/7; assay: Caspase 3/7 activity (FAM-FLICA, flow cytometry), MDA-MB-231; type: cell-based, human; conditions: 24 h
Protocol: (§2) The FAM-FLICA® Caspase Assay kits (all from ImmunoChemistry Technologies, Bloomington, MN, USA) and flow cytometer (BD FACSCanto II, BD Biosciences Systems, San Jose, CA, USA) were used to evaluate the activity of caspase 3/7, 8, and 9. MCF-7 and MDA-MB-231 cells were treated with selenoesters under the study (EDAG-1 and EDAG-8) and a reference agent (cisplatin) at two different concentrations (0.5 and 1 µM; treatment duration: 24 h). Following this, cells were collected, washed twice with cold PBS, and resuspended in an Apoptosis Wash Buffer to a final concentration of 5 × 10^5 cells/mL. In the next step, 290 µL each of cell suspension was taken and transferred into tubes. Then 10 µL of FLICA solution diluted immediately before use (1:5 v/v, using PBS) was added to the cells, mixed by pipetting, and incubated in the dark for 1 h at 37 °C. After this time, the cells were washed twice with 2 mL Apoptosis Wash Buffer, centrifuged, and resuspended in 300 µL of the buffer. Thus, prepared samples were immediately analyzed using a BD FACSCanto II flow cytometer (10,000 events) with the FACSDiva 6.0 software (both from BD Biosciences Systems, San Jose, CA, USA). The equipment calibration was carried out using the BD Cytometer Setup and Tracking Beads (BD Biosciences, San Diego, CA, USA).

[3] = system: caspase 8; assay: Caspase 8 activity (FAM-FLICA, flow cytometry), MDA-MB-231; type: cell-based, human; conditions: 24 h
Protocol: as §2

[4] = system: MCF-10A normal human breast epithelial cells; assay: DNA biosynthesis assay ([3H]-thymidine incorporation), MCF-10A; type: cell-based; conditions: read-out: IC50, DNA biosynthesis
Protocol: (§3) The study of the antiproliferative properties (intensity of [^3H]-thymidine incorporation into cell DNA) of the tested derivatives against tested cell lines (MCF-7, MDA-MB-231, MCF-10A) was performed after 24 h incubation with varied concentrations of the tested compounds in the medium (0.5–5 µM) in 6-well plates (baseline seeding density: 5 × 10^5 cells/well). After 24 h the medium was removed, the cells were washed with PBS (Corning, Kennebunk, ME, USA), and a fresh medium was added. After that, the cells were treated with 0.5 µCi of tritium-labeled thymidine (specific activity 7 Ci/mmol) by incubating them with this compound for 4 h under the same conditions as the cell culture. In the first step, the medium was removed, and the cell monolayer was washed twice with 1 mL of 0.05 M Tris-HCl buffer pH 7.4 containing 0.11 M NaCl. To denature proteins, the cells were washed twice with 1 mL of 5% trichloroacetic acid (TCA) solution. Finally, cell lysis was performed by adding 1 mL of 0.1 M sodium hydroxide (NaOH) solution containing 1% sodium dodecyl sulfate (SDS) to each well. After five minutes, the obtained cell lysates were transferred to scintillation vials with 2 mL of scintillation fluid added to them beforehand. Radioactivity was measured using the Scintillation Counter 1900 TR, TRI-CARB (Packard, Perkin Elmer, Inc., San Jose, CA, USA). The intensity of DNA biosynthesis in the analyzed cells was expressed in terms of dpm/well. The result of the radioactivity measurement in the control cells (without the addition of tested compounds) was taken as 100%, while the values of cells incubated with the tested compounds were presented as a percentage of the control value.

[5] = system: caspase 8; assay: Caspase 8 activity (FAM-FLICA, flow cytometry), MCF-7; type: cell-based, human; conditions: 24 h
Protocol: as §2

[6] = system: p53; assay: p53 protein expression by flow cytometry, MCF-7; type: cell-based, human; conditions: 24 h
Protocol: as §1

[7] = system: caspase 9; assay: Caspase 9 activity (FAM-FLICA, flow cytometry), MDA-MB-231; type: cell-based, human; conditions: 24 h
Protocol: as §2

[8] = system: p53; assay: p53 protein expression by flow cytometry, MDA-MB-231; type: cell-based, human; conditions: 24 h
Protocol: as §1

[9] = system: MCF-7 breast cancer cells; assay: DNA biosynthesis assay ([3H]-thymidine incorporation), MCF-7; type: cell-based, human; conditions: read-out: IC50, DNA biosynthesis
Protocol: as §3

[10] = system: MCF-7 breast cancer cells; assay: Mitochondrial membrane potential (JC-1, flow cytometry), MCF-7; type: cell-based, human; conditions: 24 h
Protocol: The entire cell staining and cytometric analysis procedures were performed according to the instructions provided with the kit. In the first step, the cells (1 × 10^6 cells/sample) were washed and resuspended in 0.5 mL of buffer containing 10 µg/mL JC-1 dye. Incubation was carried out for 15 min at room temperature, protected from light. Afterward, the cells were washed twice with buffer, resuspended in 0.5 mL PBS, and immediately analyzed using a flow cytometer (BD FACSCanto II; 10,000 events measured) and the FACSDiva 6.0 software (BD Biosciences Systems, San Jose, CA, USA) to count the percentage of cells with reduced ΔΨm. The equipment was calibrated with the BD Cytometer Setup and Tracking Beads (BD Biosciences, San Diego, CA, USA).

[11] = system: MDA-MB-231 triple-negative breast cancer cells; assay: DNA biosynthesis assay ([3H]-thymidine incorporation), MDA-MB-231; type: cell-based, human; conditions: read-out: IC50, DNA biosynthesis
Protocol: as §3

SMILES	LC3A/B positive cells ± SD ([1]; MDA-MB-231, 0.5 μM) [%]	LC3A/B positive cells ± SD ([1]; MDA-MB-231, 1 μM) [%]	Active caspase 3/7 ± SD (cells) ([2]; MDA-MB-231, 0.5 μM) [%]	Active caspase 3/7 ± SD (cells) ([2]; MDA-MB-231, 1 μM) [%]	Active caspase 8 ± SD (cells) ([3]; MDA-MB-231, 0.5 μM) [%]	Active caspase 8 ± SD (cells) ([3]; MDA-MB-231, 1 μM) [%]	Active caspase 8 ± SD (cells) ([5]; MCF-7, 0.5 μM) [%]	Active caspase 8 ± SD (cells) ([5]; MCF-7, 1 μM) [%]	p53 protein expression, MRF ([6]; MCF-7, 0.5 μM)	p53 protein expression, MRF ([6]; MCF-7, 1 μM)	Active caspase 9 ± SD (cells) ([7]; MDA-MB-231, 0.5 μM) [%]	Active caspase 9 ± SD (cells) ([7]; MDA-MB-231, 1 μM) [%]	p53 protein expression, MRF ([8]; MDA-MB-231, 0.5 μM)	p53 protein expression, MRF ([8]; MDA-MB-231, 1 μM)	Decreased ΔΨm ± SD (cells) ([10]; MCF-7, 0.5 μM) [%]	Decreased ΔΨm ± SD (cells) ([10]; MCF-7, 1 μM) [%]	IC50 ([4]; Homo sapiens, 24 h) [nM]	IC50 ([9]; Homo sapiens, MCF7, 24 h) [nM]	IC50 ([11]; Homo sapiens, MDA-MB-231, 24 h) [nM]	also measured
N.N.[Cl][Pt][Cl] [Cisplatin, reference compound]	2.4 ± 0.5	3.2 ± 0.3	5.2 ± 0.5	5.2 ± 0.6	7.3 ± 0.7	8.0 ± 1.6	3.7 ± 0.2	4.1 ± 0.2	375.8 ± 19.1	380.5 ± 20.4	2.7 ± 0.1	2.8 ± 0.3	375.5 ± 3.5	423.5 ± 2.1	6.3 ± 1.6	7.2 ± 0.4				IC50 ([4]; 24 h incubation): > 5000 nM; IC50 ([9]; MCF-7, 24 h incubation): > 5000 nM; IC50 ([11]; MDA-MB-231, 24 h incubation): > 5000 nM
CC(=O)C[Se]C(=O)c1ccc(C(=O)[Se]CC(C)=O)cc1 [EDAG-1, Se,Se-bis(2-oxopropyl) benzene-1,4-bis(carboselenoate)]	10.5 ± 1.4	15.4 ± 1.3	9.2 ± 0.5	12.5 ± 0.4	11.5 ± 0.9	14.4 ± 1.2	6.1 ± 0.6	6.6 ± 1.1	404.8 ± 23.7	407.8 ± 22.0	5.2 ± 0.7	8.5 ± 0.6	559.3 ± 63.1	593.0 ± 10.8	10.0 ± 0.4	15.3 ± 1.1	720 ± 70	790 ± 20	700 ± 150	
CC(=O)C[Se]C(=O)c1cc(C(=O)[Se]CC(C)=O)cc(C(=O)[Se]CC(C)=O)c1 [EDAG-8, Se,Se,Se-tris-(2-oxopropyl) benzene-1,3,5-tris-(carboxyselenoate)]	14.8 ± 0.5	17.0 ± 1.6	19.7 ± 0.6	32.2 ± 2.9	15.0 ± 2.0	26.6 ± 3.6	8.5 ± 0.8	19.4 ± 2.6	421.3 ± 24.5	450.8 ± 28.7	8.4 ± 0.9	32.5 ± 3.8	624.8 ± 49.7	661.5 ± 18.6	18.7 ± 0.9	54.2 ± 4.6	930 ± 70	960 ± 70	470 ± 80	
